From patent publication US6117976A, “Manufacture and use of polypeptides tagged using binding molecules” (Medical Research Council, priority 1993, dated 2000)
“Also recorded” adds a separate entry of the source. Where two headings read alike, the source gives them in different places. No end group written: not given here.

Assays:
calmodulin [1] = biological target: T1, calmodulin (Homo sapiens, UniProt P0DP23); settings: cited from earlier work
calmodulin [2] = biological target: T1, calmodulin; assay: Native gel electrophoresis of fluoresceinated TAG peptides with calmodulin; type: binding; settings: excess calmodulin, TBS 1 mM CaCl2, 15% native gel
Text: FIGS. 9A and 9B: Fluorescent and Coomassie blue detection of fluorescent peptide/calmodulin complexes. Native gel electrophoresis of calmodulin and fluoresceinated TAG1 (Track 1), calmodulin and fluoresceinated TAG2 (Track 2), calmodulin and fluoresceinated TAG3 (Track 3), and calmodulin and fluoresceinated TAG4 (Track 4). The gel was first imaged on a UV transilluminator and photographed (FIG. 9A) and then stained with Coomassie blue and photographed (FIG. 9B).
For peptide fluoresceination, 1 mg of each peptide was dissolved in 1 ml of 100 mM NaHCO3, pH 8.9. One volume of peptide was mixed with one volume of water and 2 volumes of 2 mM iodoacetamidofluorescein (Molecular Probes Inc.) in dimethylformamide. The reaction was allowed to proceed for 15 minutes then quenched by adding dithiothreitol to 10 mM final concentration. The fluoresceinated peptides were separated from unreacted fluorescein using a Millipore MEM-SEP cartridge column (TBS=loading and wash buffer; TBS+0.5 M NaCl=elution buffer).
A 20 μl reaction was set up containing ca. 0.4 μg of fluoresceinated peptide and 18 μg of calmodulin (Sigma) in TBS containing 1 mM CaCl2 (TBS is 50 mM Tris-HCl, pH 7.4, 100 mM NaCl in water).

calmodulin [3] = biological target: T1, calmodulin; settings: 600 nM calmodulin, 50 nM fluorescein-labeled TAG3, 7 μM unlabelled peptide, on ice, up to 4 hrs
Description: 600 nM calmodulin was pre-mixed in TBSC and 10% sucrose with 50 nM fluorescein-labeled TAG3 peptide. Aliquots were incubated on ice with a large excess (7 μM) unlabeled peptide for 0, 0.5, 1, 2, and 4 hrs, and analysed on a native 15% polyacrylamide gel (as in Laemmli, 1970 supra except with CaCl2 to 1 MM) in a Hoefer Mighty Small apparatus, and imaged with a cooled CCD-camera based fluorescent gel imaging system developed in collaboration with Confocal Technologies (Liverpool, UK) and Digital Pixel (Brighton, UK).
600 nM calmodulin was pre-mixed in TBSC and 10% sucrose with 50 nM fluorescein-labeled TAG3 peptide. Aliquots were incubated on ice with a large excess (7 μM) unlabelled peptide for 0, 0.5, 1, 2, and 4 hrs, and analysed on a native 15% polyacrylamide gel (as in Carr & Scott, 1992 supra) except with CaCl2 to 1 mM) in a Hoefer Mighty Small apparatus, and imaged with a cooled CCD-camera based fluorescent gel imaging system developed in collaboration with Confocal Technologies (Liverpool, UK) and Digital Pixel (Brighton, UK).

calmodulin [4] = biological target: T1, calmodulin; assay: Native gel autoradiography of 2-[125I]-melatonin with calmodulin; type: binding; settings: 1 μCi 2-[125I]-melatonin, 15% polyacrylamide gel, 0.5 mM CaCl2, no SDS
Description: In order to assess this, 1 μl calmodulin (1 mg/ml) was incubated with 1 μCi 2-[^125 I]-melatonin in 9 μl TBSC and run on a 15% polyacrylamide gel. The gel was as the running gel of Laemmli (Nature 1970 220 680-685), but with 0.5 mM CaCl2 and no SDS in both gel and buffer.

scFv(HyHEL-10)-CAL [5] = type: binding
Description: FIG. 8A: Binding of scFv-CAL and MBP-TAG1 detected by surface plasmon resonance (Pharmacia Biacore). 2500 resonance units (RUs) of turkey egg lysozyme (TEL) (Sigma) were immobilized on a microsensor chip of a BIAcore machine (Pharmacia). A solution of […] (5 μg/ml) in TBSC was injected onto the chip (flow rate 5 μl/min), followed by injections of MBP-TAG1 (5 μg/ml), then 20 mM EGTA (to dissociate the complex) and then MBP (New England Biolabs 5 μg/ml).
Thus HEL was immobilised on the microsensor chip, and the chip saturated with scFv(HyHEL-10)-CAL.
(§1) 2500 resonance units (RUs) of turkey egg lysozyme (TEL) (Sigma) were immobilised on a microsensor chip of a BIAcore machine (Pharmacia). A solution of […] (5 μg/ml) in TBSC was injected onto the chip (flow rate 5 μl/min), followed by injections of MBP-TAG1 (5 μg/ml), then 20 mM EGTA (to dissociate the complex) and then MBP (New England Biolabs 5 μg/ml). […] Conditions were as in Example 7 and FIG. 5, except the gel was stained with Coomassie. Lanes: 1, MBP-TAG1 (0.3 mg/ml); 2, scFv (HyHEL10)-CAL (0.08 mg/ml); 3, scFv (HyHEL-10) (0.08 mg/ml)+MBP-TAG1 (0.3 mg/ml).

scFv(HyHEL-10)-CAL [6] = assay: Native Phast gel analysis of scFv(HyHEL-10)-CAL and MBP-TAG1 interaction; type: binding
Description: FIG. 8B: Homogeneous 20 Native Phast Gel (Pharmacia) for the analysis of scFv(HyHEL-10)-CAL and MBP-TAG1 interaction. Conditions as in FIG. 5, except the gel was stained with Coomassie. Lanes: 1, MBP-TAG1 (0.3 mg/ml); 2, scFv (HyHEL-10)-CAL (0.08 mg/ml); 3, scFv (HyHEL-10) (0.08 mg/ml)+MBP-TAG1 (0.3 mg/ml).
as §1

[7] = in vivo; cited from earlier work
[8] = system: fluoresceinated TAG-3 peptide; assay: Band shift assay of alternative fusion partners with fluoresceinated TAG-3 peptide; type: binding; settings: 10 μM fluoresceinated TAG-3, TBSC, High-Density Phast Gel, native
Description: 1 μl of purified scFv (D1.3)-CAL (Example 5), scFv(D1.3)-CAL(N-domain), scFv(D1.3)-CAL(C-domain), calmodulin or troponin C were incubated with 10 μM fluoresceinated TAG-3 peptide and 8 μl TBSC. The samples were run on a High-Density Phast Gel (Pharmacia) using native buffer strips, and gel imaged.

[9] = Table 1, affinities of calmodulin-binding peptides

Compound: KRRAIGFKKLAEAVKFSAKLMGQAMAKRVK-NH2 [NO-30]
- Kd (calmodulin [1]; [9]): 2 nM

Compound: C-EIKRAAA-INLKALAALAKKIL-IKRKRQQ-NH2 [TAG 3]
- peptide-calmodulin complex formation (comigration of fluorescent and coomassie bands) (calmodulin [2]): the upper of these that has bound peptide
- displacement of fluorescent peptide from calmodulin by unlabelled peptide (calmodulin [3]): not significantly displaced from the calmodulin even after four hours competition

Compound: C-EIKRAAA-INLKALAALAKKIL-IK-OH [TAG 4]
- peptide-calmodulin complex formation (comigration of fluorescent and coomassie bands) (calmodulin [2]): stable complex with calmodulin

Compound: COc1ccc2[nH]c([125I])c(CCNC(C)=O)c2c1 [2-[^125 I]-melatonin]
- detection of calmodulin-melatonin complex on gel (radioactive band) (calmodulin [4]): no radioactive band was detected

Compound: IKPAKRMKFKTVCYLLVQLMHCRKMFKA-NH2 [AC-28]
- Kd (calmodulin [1]; [9]): 2 nM

Compound: QILWFRGLNRIQTQIRVVNAFRSS-NH2 [Ca++ pump]
- Kd (calmodulin [1]; [9]): 10 nM

Compound: MBP-TAG1: maltose binding protein with the TAG1 peptide appended at the C-terminus (CEIKRAAAINLKALAALAKKIL)
- binding to chip saturated with scFv(HyHEL-10)-CAL (scFv(HyHEL-10)-CAL [5]; 5 μg/ml in TBSC): shown to bind to the chip
- dissociation of bound protein by EGTA (scFv(HyHEL-10)-CAL [5]; 20 mM EGTA): could be dissociated by addition of EGTA
- stable complex with scFv calmodulin fusion by gel electrophoresis (scFv(HyHEL-10)-CAL [6]): form a stable complex

Compound: maltose binding protein [MBP]
- binding to chip saturated with scFv(HyHEL-10)-CAL (scFv(HyHEL-10)-CAL [5]): not

Compound: INLKALAALAKKIL-NH2 [Mastoparan]
- Kd (calmodulin [1]; [9]): 0.3 nM
- Ka (calmodulin [1]; association constant for calmodulin): 3.3e+09 M⁻¹
- Kd (calmodulin [1]; binding to calmodulin, Malencik and Anderson, 1983): 0.3 nM

Compound: calmodulin
- excretion [7]: rapidly excreted in the urine
- immunogenicity [7]: poorly immunogenic
- organ accumulation [7]: does not accumulate selectively in any organ
- toxicity [7]: not toxic
- complex formation with TAG-3 (fluorescent band) [8]: observed

Compound: C-EIKRAAA-INLKALAALAKKIL-NH2 (CEIKRAAAINLKALAALAKKIL-NH2) [TAG 1]
- peptide-calmodulin complex formation (comigration of fluorescent and coomassie bands) (calmodulin [2]): stable complex with calmodulin

Compound: COc1ccc2[nH]cc(CCNC(C)=O)c2c1 [Melatonin, melatonin]
- detection of calmodulin-melatonin complex on gel (radioactive band) (calmodulin [4]): no complex is detected on band shift assays

Compound: C-EIKRAAA-INLKALAALAKKIL-OH [TAG 2]
- peptide-calmodulin complex formation (comigration of fluorescent and coomassie bands) (calmodulin [2]): stable complex with calmodulin

Compound: troponin C
- complex formation with TAG-3 (fluorescent band) [8]: observed; also recorded: binds well
